# Legend:
# Format in all cases: in vivo
# barnyardgrass [1] = experiment: Test Example 1: herbicidal effects in preemergence treatment under submerged conditions; conditions: dose 2.52 g/a
# Procedure, shortened: (§1)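 Alluvial soil was flooded to 4 cm, sown with barnyardgrass, bulrush and ducksalad, and planted with 2.5-leaf rice seedlings. On the seeding day, water-diluted emulsifiable concentrates were applied to the water surface at set doses (g/a). After three weeks in a 25 to 30° C. greenhouse, mortality was scored 0–5.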
# bulrush [2] = experiment: as above; conditions: dose 2.52 g/a
# Procedure, shortened: as §1
# ducksalad [3] = experiment: as above; conditions: dose 2.52 g/a
# Procedure, shortened: as §1
# transplanted rice = experiment: Test Example 1: preemergence treatment under submerged conditions, effect on crop; conditions: dose 2.52 g/a
# Procedure, shortened: as §1
# barnyardgrass [4] = experiment: Test Example 2: herbicidal effects during the vegetation period under submerged conditions; conditions: treatment during the vegetation period under submerged conditions; dose 2.52 g/a
# Procedure, shortened: (§2)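 Barnyardgrass, bulrush and ducksalad were co-sown in alluvial soil flooded to 4 cm and grown in a greenhouse at 25 to 30° C. At the 1- or 2-leaf stage, water-diluted emulsifiable concentrates went onto the water surface at set doses (g/a). Herbicidal effect was scored three weeks later on a graded scale.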
# bulrush [5] = experiment: as above; conditions: treatment during the vegetation period under submerged conditions; dose 2.52 g/a
# Procedure, shortened: as §2
# ducksalad [6] = experiment: as above; conditions: treatment during the vegetation period under submerged conditions; dose 2.52 g/a
# Procedure, shortened: as §2
# Italian ryegrass [7] = experiment: Test Example 3: herbicidal effects in soil treatment; conditions: dose 3.2 g/a
# Procedure, shortened: (§3)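 Seeds were sown in sterilized diluvial soil and covered with about 1.5 cm of soil. Compounds, formulated as emulsifiable concentrates and diluted with water, were sprayed evenly over the soil surface at set doses in g/a. Herbicidal effect was scored on a rating scale three weeks later.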
# barnyardgrass [8] = experiment: as above; conditions: dose 3.2 g/a
# Procedure, shortened: as §3
# beadstraw [9] = experiment: as above; conditions: dose 3.2 g/a
# Procedure, shortened: as §3
# common chickweed [10] = experiment: as above; conditions: dose 3.2 g/a
# Procedure, shortened: as §3
# common lambsquater [11] = experiment: as above; conditions: dose 3.2 g/a
# Procedure, shortened: as §3
# common ragweed [12] = experiment: as above; conditions: dose 3.2 g/a
# Procedure, shortened: as §3
# giant foxtail [13] = experiment: as above; conditions: dose 3.2 g/a
# Procedure, shortened: as §3
# large crabgrass [14] = experiment: as above; conditions: dose 3.2 g/a
# Procedure, shortened: as §3
# posumbu knotweed [15] = experiment: as above; conditions: dose 3.2 g/a
# Procedure, shortened: as §3
# redroot pigweed [16] = experiment: as above; conditions: dose 3.2 g/a
# Procedure, shortened: as §3
# velvetleaf [17] = experiment: as above; conditions: dose 3.2 g/a
# Procedure, shortened: as §3
# water foxtail [18] = experiment: as above; conditions: dose 3.2 g/a
# Procedure, shortened: as §3
# wild oat [19] = experiment: as above; conditions: dose 3.2 g/a
# Procedure, shortened: as §3
# Italian ryegrass [20] = experiment: Test Example 4: herbicidal effect in foliage treatment; conditions: dose 3.2 g/a, three weeks after the application
# Procedure, shortened: (§4)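 Post-emergence foliar spray of water-diluted emulsifiable concentrate at predetermined doses (g per are), applied to plants 14 days after sowing in sterile diluvial soil (greenhouse, 25 to 30° C). Visual scale rating of effect taken 3 weeks later.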
# barnyardgrass [21] = experiment: as above; conditions: dose 3.2 g/a, three weeks after the application
# Procedure, shortened: as §4
# beadstraw [22] = experiment: as above; conditions: dose 3.2 g/a, three weeks after the application
# Procedure, shortened: as §4
# common chickweed [23] = experiment: as above; conditions: dose 3.2 g/a, three weeks after the application
# Procedure, shortened: as §4
# common lambsquater [24] = experiment: as above; conditions: dose 3.2 g/a, three weeks after the application
# Procedure, shortened: as §4
# common ragweed [25] = experiment: as above; conditions: dose 3.2 g/a, three weeks after the application
# Procedure, shortened: as §4
# giant foxtail [26] = experiment: as above; conditions: dose 3.2 g/a, three weeks after the application
# Procedure, shortened: as §4
# large crabgrass [27] = experiment: as above; conditions: dose 3.2 g/a, three weeks after the application
# Procedure, shortened: as §4
# posumbu knotweed [28] = experiment: as above; conditions: dose 3.2 g/a, three weeks after the application
# Procedure, shortened: as §4
# redroot pigweed [29] = experiment: as above; conditions: dose 3.2 g/a, three weeks after the application
# Procedure, shortened: as §4
# velvetleaf [30] = experiment: as above; conditions: dose 3.2 g/a, three weeks after the application
# Procedure, shortened: as §4
# water foxtail [31] = experiment: as above; conditions: dose 3.2 g/a, three weeks after the application
# Procedure, shortened: as §4
# wild oat [32] = experiment: as above; conditions: dose 3.2 g/a, three weeks after the application
# Procedure, shortened: as §4
# barnyardgrass [33] = experiment: Comparative Example 1: herbicidal effects in preemergence treatment on barnyardgrass under submerged conditions; conditions: applied to water surface on the day of seeding, three weeks after application
# From the text: Comparative Example 1 Test on the Herbicidal Effects in Preemergence Treatment on Barnyardgrass Under Submerged Conditions Alluvial soil was put in 1/30000-are styrol cups and admixed with water so that it was submerged at a depth of 4 cm. In each cup, seeds of barnyardgrass were sown, and on the same day as the seeding, emulsifiable concentrates containing compounds of the present invention formulated in accordance with Formulation Example 2 were applied to the water surfaces at predetermined doses after diluted with water. The cups were placed in a greenhouse at 25 to 30° C. to grow the plants. Three weeks after the application, the herbicidal effects against barnyardgrass were determined on the following evaluation scale. The symbol A in the table means barnyardgrass.
# barnyardgrass [34] = experiment: Comparative Example 2: herbicidal effects on barnyardgrass during the vegetation period under submerged conditions; conditions: applied to water surface at the 2- or 2.5-leaf stage, three weeks after application
# Method: Comparative Example 2 Test on the Herbicidal Effects on Barnyardgrass During the Vegetation Period Under Submerged Conditions Alluvial soil was put in 1/30000-are styrol cups and admixed with water so that it was submerged at a depth of 4 cm. In each cup, seeds of barnyardgrass were sown, and the cups were placed in a greenhouse at 25 to 30° C. to grow the plants. When the barnyardgrass reached the 2- or 2.5-leaf stage, emulsifiable concentrates containing compounds of the present invention and the comparative compounds formulated in accordance with Formulation Example 2 were applied to the water surfaces at predetermined doses after diluted with water. Three weeks after the application, the herbicidal effects were determined on the same evaluation scale as in Test Example 1. The symbol A in the table is the same as defined above.
compound,measurement,setting,value
CCOC(=O)N(c1ccccc1CN1COCN(CC)C1=O)S(=O)(=O)C(F)(F)F [IV-6],"A: barnyardgrass, herbicidal effect (evaluation scale 0-5)",barnyardgrass [1],5 (mortality of 90% or above (nearly complete death))
same,"B: bulrush, herbicidal effect (evaluation scale 0-5)",bulrush [2],5 (mortality of 90% or above (nearly complete death))
same,"C: ducksalad, herbicidal effect (evaluation scale 0-5)",ducksalad [3],5 (mortality of 90% or above (nearly complete death))
same,"a: transplanted rice, effect on crop (evaluation scale 0-5)",transplanted rice,0 (mortality of less than 5% (almost ineffective))
same,"A: barnyardgrass, herbicidal effect (evaluation scale 0-5)",barnyardgrass [4],5 (mortality of 90% or above (nearly complete death))
same,"B: bulrush, herbicidal effect (evaluation scale 0-5)",bulrush [5],5 (mortality of 90% or above (nearly complete death))
same,"C: ducksalad, herbicidal effect (evaluation scale 0-5)",ducksalad [6],5 (mortality of 90% or above (nearly complete death))
same,"herbicidal effect, H: Italian ryegrass",Italian ryegrass [7],0 (mortality of less than 5% (almost ineffective))
same,"herbicidal effect, A: barnyardgrass",barnyardgrass [8],5 (mortality of 90% or above (nearly complete death))
same,"herbicidal effect, O: beadstraw",beadstraw [9],4 (mortality of at least 70% and less than 90%)
same,"herbicidal effect, N: common chickweed",common chickweed [10],4 (mortality of at least 70% and less than 90%)
same,"herbicidal effect, L: common lambsquater",common lambsquater [11],0 (mortality of less than 5% (almost ineffective))
same,"herbicidal effect, J: common ragweed",common ragweed [12],0 (mortality of less than 5% (almost ineffective))
same,"herbicidal effect, E: giant foxtail",giant foxtail [13],5 (mortality of 90% or above (nearly complete death))
same,"herbicidal effect, D: large crabgrass",large crabgrass [14],5 (mortality of 90% or above (nearly complete death))
same,"herbicidal effect, M: posumbu knotweed",posumbu knotweed [15],0 (mortality of less than 5% (almost ineffective))
same,"herbicidal effect, K: redroot pigweed",redroot pigweed [16],1 (mortality of at least 5% and less than 20%)
same,"herbicidal effect, I: velvetleaf",velvetleaf [17],5 (mortality of 90% or above (nearly complete death))
same,"herbicidal effect, G: water foxtail",water foxtail [18],5 (mortality of 90% or above (nearly complete death))
same,"herbicidal effect, F: wild oat",wild oat [19],0 (mortality of less than 5% (almost ineffective))
same,"H: Italian ryegrass, herbicidal effect",Italian ryegrass [20],2 (mortality of at least 20% and less than 40%)
same,"A: barnyardgrass, herbicidal effect",barnyardgrass [21],4 (mortality of at least 70% and less than 90%)
same,"O: beadstraw, herbicidal effect",beadstraw [22],4 (mortality of at least 70% and less than 90%)
same,"N: common chickweed, herbicidal effect",common chickweed [23],4 (mortality of at least 70% and less than 90%)
same,"L: common lambsquater, herbicidal effect",common lambsquater [24],3 (mortality of at least 40% and less than 70%)
same,"J: common ragweed, herbicidal effect",common ragweed [25],3 (mortality of at least 40% and less than 70%)
same,"E: giant foxtail, herbicidal effect",giant foxtail [26],4 (mortality of at least 70% and less than 90%)
same,"D: large crabgrass, herbicidal effect",large crabgrass [27],4 (mortality of at least 70% and less than 90%)
same,"M: posumbu knotweed, herbicidal effect",posumbu knotweed [28],0 (mortality of less than 5% (almost ineffective))
same,"K: redroot pigweed, herbicidal effect",redroot pigweed [29],0 (mortality of less than 5% (almost ineffective))
same,"I: velvetleaf, herbicidal effect",velvetleaf [30],5 (mortality of 90% or above (nearly complete death))
same,"G: water foxtail, herbicidal effect",water foxtail [31],5 (mortality of 90% or above (nearly complete death))
same,"F: wild oat, herbicidal effect",wild oat [32],0 (mortality of less than 5% (almost ineffective))
"CC(C)COC(O)N(c1ccccc1CN1CCCOC1=O)S(=O)(=O)C(F)(F)F (stereo not drawn) [a, reference compound]","herbicidal effect, A (barnyardgrass)",barnyardgrass [33]; dose 0.16 g/a,0 (mortality of less than 5% (almost ineffective))
same,"herbicidal effect, A (barnyardgrass)",barnyardgrass [33]; dose 0.64 g/a,5 (mortality of 90% or above (nearly complete death))
same,"herbicidal effect, A (barnyardgrass)",barnyardgrass [33]; dose 2.52 g/a,5 (mortality of 90% or above (nearly complete death))
same,"herbicidal effect, A (barnyardgrass)",barnyardgrass [34]; dose 0.16 g/a,0 (mortality of less than 5% (almost ineffective))
same,"herbicidal effect, A (barnyardgrass)",barnyardgrass [34]; dose 0.64 g/a,0 (mortality of less than 5% (almost ineffective))
same,"herbicidal effect, A (barnyardgrass)",barnyardgrass [34]; dose 2.52 g/a,5 (mortality of 90% or above (nearly complete death))

# Reference: patent US20120029187A1, “HALOALKYLSULFONANILIDE DERIVATIVE” (Nissan Chemical Industries, Ltd., priority 2009, published 2012)
